Our source for the TGI and GI50 values is PubChem BioAssay (NCI).

Several values for one entry are separate records, joined by “and”; a condition that tells them apart may be missing. Equal entries are not always repeated.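 Method: 48-hour compound exposure of cells in 96-well plates, five concentrations, linear interpolation of endpoints. GI50: concentration for 50% inhibition of growth. TGI: total growth inhibition.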 Where only a bound is given, the exact number is not on record here.

Test systems include A549 NSCLC; EKVX NSCLC; NCI-H226 lung; SK-OV-3 ovarian; CCRF-CEM leukemia; KM12 colon; MDA-MB-435; K-562 leukemia.
Holding throughout (assay): NCI-60 cell line screen, 48 h

As for `O=S(=O)(/N=C(\NO)Nc1ccc(Cl)cc1)c1cc(C(F)(F)F)cc(C(F)(F)F)c1`, the TGI in the test on A549 NSCLC is 34.5 µM; in the test on EKVX NSCLC, 30.6 µM; in the test on NCI-H226 lung it was 35.9 µM; in the test with SK-OV-3 ovarian, 35.2 µM; with CCRF-CEM leukemia, more than 100 µM; in the test on KM12 colon it was 41.1 µM. Also, the results for the TGI with MDA-MB-435 and in the test on K-562 leukemia were 37.6 µM and 90.4 µM, respectively.

For `CC(=O)NC1C(OCC(=O)NCCNc2ccc([N+](=O)[O-])c3[nH]c4ccccc4c(=O)c23)C(O)C(CO)OC1(C)OCc1ccccc1` (configuration not stated), the TGI in the test with A549 NSCLC, in the test on EKVX NSCLC, in the test with NCI-H226 lung, in the test with SK-OV-3 ovarian, with CCRF-CEM leukemia and with KM12 colon was more than 100 µM throughout. The TGI in the test on MDA-MB-435 and with K-562 leukemia was more than 100 µM in each case.

For the molecule `Cn1c(CNc2ccc(-c3n[nH]c(=S)n3C)cc2)n[nH]c1=S`, the TGI with A549 NSCLC, in the test on EKVX NSCLC, in the test with NCI-H226 lung, with SK-OV-3 ovarian, in the test with CCRF-CEM leukemia and in the test on KM12 colon was more than 100 µM each time. Besides, the TGI in the test with MDA-MB-435 and with K-562 leukemia was more than 100 µM each time.

On to `COC(=O)[C@@H]1[C@@H]2NC(=S)N[C@@]1(C)Oc1ccccc12`, for which the TGI in the test with EKVX NSCLC was more than 100 µM; in the test on NCI-H226 lung it was more than 100 µM; with SK-OV-3 ovarian, more than 100 µM; in the test on CCRF-CEM leukemia, more than 100 µM; in the test on KM12 colon, more than 100 µM; with MDA-MB-435, 33.5 µM. Moreover, in the test with K-562 leukemia, the TGI is more than 100 µM.

In the case of `O=C(Nn1c(-c2ccccc2)nc2ccccc2c1=O)c1ccc(Cl)cc1`, the TGI with A549 NSCLC, with EKVX NSCLC, in the test on NCI-H226 lung, in the test on SK-OV-3 ovarian, in the test with CCRF-CEM leukemia and in the test with KM12 colon was more than 100 µM in each case. Further, the TGI with MDA-MB-435 and with K-562 leukemia was more than 100 µM in each case.

`O=C(c1ccc(Cl)cc1)N(C(=O)N1CCCCC1)c1ccccc1`: the TGI in the test with EKVX NSCLC, with NCI-H226 lung, in the test on SK-OV-3 ovarian, in the test on CCRF-CEM leukemia, with KM12 colon and in the test with MDA-MB-435 was more than 100 µM each time. Moreover, in the test with K-562 leukemia, the TGI was more than 100 µM.

As to `CCOC(=O)c1cn(CC)c(=O)n2c1nc1ccccc12`, the TGI in the test on A549 NSCLC, in the test on EKVX NSCLC, with NCI-H226 lung, in the test on CCRF-CEM leukemia, in the test with KM12 colon and in the test with MDA-MB-435 was more than 100 µM each time. This molecule gave a TGI with K-562 leukemia of more than 100 µM.

With `c1cc(-c2ccc(-c3ccsc3)s2)cs1`, the TGI is 64.5 µM with A549 NSCLC; more than 100 µM in the test on EKVX NSCLC; 98.7 µM in the test on NCI-H226 lung; more than 100 µM in the test on SK-OV-3 ovarian; 44.4 µM in the test with CCRF-CEM leukemia; more than 100 µM in the test on MDA-MB-435. The molecule also returned a TGI in the test with K-562 leukemia of more than 100 µM.

On to `Cc1cc(O)c(/C=N/C(N)=S)c(=O)o1`, for which the TGI in the test with A549 NSCLC was more than 100 µM; in the test with EKVX NSCLC, more than 100 µM; with NCI-H226 lung, more than 100 µM; in the test on SK-OV-3 ovarian, more than 100 µM; in the test on CCRF-CEM leukemia, 84.4 µM; in the test on KM12 colon it was more than 100 µM. In the test with MDA-MB-435, this molecule showed a TGI of more than 100 µM.

For `Clc1ccc(C=Nc2ccc(Oc3ccc(Cl)cc3)c(Cl)c2)cc1`, the TGI is 59.1 µM in the test with A549 NSCLC; 70.2 µM in the test with EKVX NSCLC; more than 100 µM in the test on NCI-H226 lung; 50.2 µM with SK-OV-3 ovarian; 59.7 µM in the test on CCRF-CEM leukemia; 52.5 µM in the test on KM12 colon. Further, the TGI with MDA-MB-435 turned out to be 82.5 µM.

Regarding `COc1ccc(CCCCNCc2cccc(CNCCCCc3ccc(OC)cc3)c2)cc1`, the TGI with A549 NSCLC turned out to be 4.86 µM; in the test with EKVX NSCLC it was 3.42 µM; in the test on NCI-H226 lung it was 2.33 µM; in the test with SK-OV-3 ovarian it was 4.02 µM; with CCRF-CEM leukemia it was 4.47 µM; in the test with KM12 colon, 3.69 µM. The same molecule had a TGI in the test on MDA-MB-435 of 3.63 µM.

`COC(=O)/C=C/c1ccc(OP(=O)(O)O)c(OC)c1`: the TGI in the test with A549 NSCLC, in the test with EKVX NSCLC, with NCI-H226 lung, with SK-OV-3 ovarian, in the test on CCRF-CEM leukemia and with KM12 colon was more than 100 µM in each case. Moreover, in the test on MDA-MB-435, the TGI was more than 100 µM.

Consider `COC1(OC)c2occc2C(=N)c2ccc(=O)oc21`, for which the TGI in the test on A549 NSCLC, with EKVX NSCLC, with NCI-H226 lung, in the test on SK-OV-3 ovarian, with CCRF-CEM leukemia and in the test with MDA-MB-435 was more than 100 µM each time. In addition, the TGI in the test on K-562 leukemia was more than 100 µM.

In the case of `N#Cc1sc2nc3ccccc3n2c1N`, the TGI was more than 100 µM in the test on A549 NSCLC; more than 100 µM in the test with EKVX NSCLC; more than 100 µM in the test with NCI-H226 lung; more than 100 µM in the test on SK-OV-3 ovarian; more than 100 µM in the test on CCRF-CEM leukemia; 23.6 µM in the test with KM12 colon. Further, the TGI in the test with MDA-MB-435 was more than 100 µM.

Consider `COc1ccc(OC)c2sc(N3C(=O)/C(=C/c4cccc(Oc5ccccc5)c4)N=C3c3ccccc3)nc12`, for which the TGI in the test on A549 NSCLC, in the test on EKVX NSCLC, in the test on SK-OV-3 ovarian, in the test with CCRF-CEM leukemia, with KM12 colon and in the test with MDA-MB-435 was more than 100 µM each time. In the test on K-562 leukemia, this molecule gave a TGI of more than 100 µM.

Regarding `CCN1/C(=C/C#C/C(C)=C\c2sc3ccc(Cl)cc3[n+]2CC)Sc2ccc(Cl)cc21`, the TGI is 22 µM in the test with A549 NSCLC; 20.8 µM in the test with EKVX NSCLC; 21.9 µM in the test on NCI-H226 lung; 22 µM in the test on SK-OV-3 ovarian; more than 100 µM in the test on CCRF-CEM leukemia; 19.4 µM with KM12 colon. This molecule yielded a TGI with MDA-MB-435 of 13.7 µM.

`COc1cc([C@@H]2c3cc4c(cc3[C@@H](Nc3ccc(NC(=O)c5cc([N+](=O)[O-])cn5C)cc3)[C@H]3COC(=O)[C@H]23)OCO4)cc(OC)c1O`: the TGI was 1.31 µM and 0.309 µM with A549 NSCLC; more than 100 µM in the test with EKVX NSCLC; 0.29 µM with NCI-H226 lung; > 100 µM and 19.1 µM in the test with SK-OV-3 ovarian; 0.14 µM in the test with CCRF-CEM leukemia; more than 100 µM in the test on MDA-MB-435. Also, the TGI in the test on K-562 leukemia is more than 100 µM. Moreover, the GI50 was 0.179 µM and 0.0249 µM in the test on NCI-H226 lung; 0.104 µM and 0.262 µM with SK-OV-3 ovarian; 0.415 µM in the test on MDA-MB-435; 0.293 µM in the test on K-562 leukemia.
